Laboratory results taken from PMC8041284, “Tunable Methacrylamides for Covalent Ligand Directed Release Chemistry” (Journal of the American Chemical Society, 2021).
Read-outs that look alike come from different tables or passages of the source.

Molecular target: BTK (Homo sapiens, UniProt Q06187)
Assay: biochemical
[1] = read-out: BTK inhibition (%), 0.75 uM BTK, […] probe 3l, 15 min preincubation

BTK, sequence (Q06187 402-655 limits assumed): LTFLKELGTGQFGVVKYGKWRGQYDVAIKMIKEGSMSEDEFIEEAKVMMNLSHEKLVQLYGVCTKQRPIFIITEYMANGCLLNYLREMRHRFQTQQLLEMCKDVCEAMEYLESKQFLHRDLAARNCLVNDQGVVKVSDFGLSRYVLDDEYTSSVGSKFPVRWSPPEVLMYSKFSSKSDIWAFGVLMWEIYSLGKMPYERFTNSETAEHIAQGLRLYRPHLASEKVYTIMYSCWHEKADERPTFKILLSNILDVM

Row | inhibition at 10 µM [1] [%] | SMILES | inhibition at 10 µM (read-out: BTK inhibition (%)) [%]
1 | 11.6 | COC1[C@@H](O)[C@H](O)C(O)[C@H](O)[C@H]1O (stereo partly shown) [PCM-0216283] | –
2 | -9.7 | CC(=O)OCCc1ccc(O)c(O)c1 [PCM-0214986] | –
3 | -0.8 | O=C(O)c1cc(C(=O)O)c2c(n1)C(=O)C(=O)c1cc(C(=O)O)[nH]c1-2 [PCM-0216638] | –
4 | 15.6 | CCOC(=O)C1=C(N)Oc2ccc(Br)cc2C1C(C#N)C(=O)OCC (stereo not shown) [PCM-0214778] | –
5 | -23.3 | C=C1CC[C@H](O)C/C1=C/C=C1\CCC[C@]2(C)[C@@H]([C@H](C)/C=C/[C@H](C)C(C)C)CC[C@@H]12 [PCM-0214746] | –
6 | 2.3 | C[C@@H](c1ncncc1F)[C@](O)(Cn1cncn1)c1ccc(F)cc1F [PCM-0214624] | –
7 | 2.3 | CC(=O)CC/C=C(\C)CC/C=C(\C)CC/C=C(\C)CCC=C(C)C [PCM-0215116] | –
8 | -9.3 | COc1ccc(COc2ccc(CC#N)cc2)cc1 [PCM-0215565] | –
9 | -9.3 | O=C1CCc2ccccc2O1 [PCM-0216624] | –
10 | 97.2 | C=CC(=O)N1CCC[C@H](n2c(=O)n(-c3ccc(Oc4ccccc4)cc3)c3c(N)ncnc32)C1 [PCM-0215519] | –
11 | 74.9 | COC(=O)N[C@H](C(=O)N1CC2(CC2)C[C@H]1c1ncc(-c2ccc3c(c2)C(F)(F)c2cc(-c4ccc5nc([C@@H]6[C@H]7CC[C@H](C7)N6C(=O)[C@@H](NC(=O)OC)C(C)C)[nH]c5c4)ccc2-3)[nH]1)C(C)C [PCM-0215396] | –
12 | 5.1 | NC[C@@H]1O[C@H](O[C@H]2[C@@H](O)[C@H](O[C@@H]3[C@@H](O)[C@H](N)C[C@H](N)[C@H]3O[C@H]3O[C@H](CO)[C@@H](O)[C@H](O)[C@H]3N)O[C@@H]2CO)[C@H](N)[C@@H](O)[C@@H]1O [PCM-0215214] | –
13 | 17.9 | COC(=O)c1cc(O)c(O)c(O)c1 [PCM-0215013] | –
14 | 3.4 | CO[C@H]1C[C@@H]2CC[C@@H](C)[C@@](O)(O2)C(=O)C(=O)N2CCCC[C@H]2C(=O)O[C@H]([C@H](C)C[C@@H]2CC[C@H](n3cnnn3)[C@H](OC)C2)CC(=O)[C@H](C)/C=C(\C)[C@@H](O)[C@@H](OC)C(=O)[C@H](C)C[C@H](C)/C=C/C=C/C=C/1C [PCM-0215342] | –
15 | -6.8 | O=c1ccn([C@@H]2O[C@H](COP(=O)(O)O)[C@@H](O)[C@H]2O)c(=O)[nH]1 [PCM-0216290] | –
16 | -17 | O=C(Nc1cccc(C2=NCCN2)c1)Nc1cccc(C2=NCCN2)c1 [PCM-0216019] | –
17 | -13.1 | CNc1cc(-c2cccc(Cl)c2Cl)nc(N)n1 [PCM-0215511] | –
18 | 6.2 | O=C(O)c1c[nH]c2ccccc12 [PCM-0215132] | –
19 | 7 | CSc1ccc(C(=O)/C=C/c2cc(C)c(OC(C)(C)C(=O)O)c(C)c2)cc1 [PCM-0214917] | –

Row | inhibition at 10 µM [1] [%] | SMILES | inhibition at 10 µM (read-out: BTK inhibition (%)) [%]
20 | -3.1 | COc1cc(C(=O)NC2CCCNC2)cc(OC)c1OC (stereo not shown) [PCM-0214753] | –
21 | -17 | Fc1ccc(Cl)cc1-c1nc(Nc2ccncc2)c2nccnc2n1 [PCM-0215428] | –
22 | -4.6 | COc1ccc2[nH]c(=O)oc2c1 [PCM-0216501] | –
23 | 13.9 | Cc1ccc(OCC(O)C(C)NC(C)C)c2c1CCC2 (stereo not shown) [PCM-0215619] | –
24 | 3.9 | COc1ccc(-c2oc3c(CC=C(C)C)c(O)cc(O)c3c(=O)c2O)cc1 [PCM-0216376] | –
25 | -9.4 | C=C(C)[C@@H]1CC[C@]2(C)CC[C@]3(C)[C@H](CC[C@@H]4[C@@]5(C)CC[C@H](O)C(C)(C)[C@@H]5CC[C@]43C)[C@@H]12 [PCM-0215902] | –
26 | -30.1 | Cc1cc(=O)c2c(O)c3c(cc2o1)OC(C)(C)[C@@H](O[C@@H]1O[C@H](CO)[C@@H](O)[C@H](O)[C@H]1O)C3 [PCM-0216445] | –
27 | -9.3 | O=C(NCCCn1ccnc1)c1cc(-c2ccco2)on1 [PCM-0215720] | –
28 | 17 | O=C(c1ccc(Cl)cc1Cl)n1nnc2ccccc21 [PCM-0215673] | –
29 | 33.8 | COC1(c2sc3c(N4CCOCC4)nc(-c4cnc(N)nc4)nc3c2C)COC1 [PCM-0215460] | –
30 | 31.7 | Nc1ccc(/C=C/C(=O)NCc2cc3cc(-c4ccc(C(=O)N5CCC(F)(F)CC5)cc4)cc(-c4ccc(F)cc4)c3o2)cn1 [PCM-0216035] | –
31 | 9.3 | O=C1CCc2ccc(O)cc2N1 [PCM-0215070] | –
32 | 1.4 | CNC(=O)c1c(C)oc2cc(Oc3ncnc4cc(OC)c(OC)cc34)ccc12 [PCM-0216648] | –
33 | -17 | CN[C@@H](C)C(=O)N[C@H](C(=O)N1CCC[C@H]1C(=O)Nc1snnc1-c1ccccc1)C1CCCCC1 [PCM-0215217] | –
34 | 14 | N#Cc1c(N)nc(NC2CC2)nc1N [PCM-0216125] | –
35 | 23.3 | Cc1cn([C@H]2O[C@@H](CO)[C@H](O)[C@H]2F)c(=O)[nH]c1=O [PCM-0214737] | –
36 | -2.8 | O=c1[nH]ccc2c(S(=O)(=O)N3CCCNCC3)cccc12 [PCM-0215797] | –
37 | 51.7 | COc1ccc2[nH]cc(/C=C3\C(=O)Nc4ccc(NC(=O)CCN5CCCCC5)cc43)c2c1 [PCM-0216653] | –
38 | -20.8 | CC(O)c1cc(C(=O)N[C@@H](C)Cn2ccc(-c3ccc(C#N)c(Cl)c3)n2)n[nH]1 (stereo partly shown) [PCM-0215540] | –

The next lines start with the molecule.

Row | SMILES | inhibition at 10 µM [1] [%] | inhibition at 10 µM (read-out: BTK inhibition (%)) [%]
39 | CN(C)C/C=C/C(=O)Nc1ccc(C(=O)Nc2cccc(Nc3ncc(Cl)c(-c4c[nH]c5ccccc45)n3)c2)cc1 [PCM-0213464] | 117 | –
40 | O=C(Nc1ccc(Cl)cc1)C1CCCN(C(=O)c2cccc(-c3ccco3)c2)C1 (stereo not shown) [PCM-0102067] | 40.9 | –
41 | Cc1ccc([N+](=O)[O-])cc1S(=O)(=O)N(C)/N=C/c1cnc2ccc(Br)cn12 [PCM-0094904] | 13.6 | –
42 | NC(=O)c1ccc(N(C(N)=O)c2c(F)cccc2F)nc1-c1ccc(F)cc1F [PCM-0095567] | -32.4 | –
43 | C=C(CCC=C(C)C)[C@H]1CC[C@]2(C)[C@@H]1[C@H](O)C[C@@H]1[C@@]3(C)CC[C@H](O[C@@H]4O[C@H](CO)[C@@H](O)[C@H](O)[C@H]4O[C@@H]4O[C@H](CO)[C@@H](O)[C@H](O)[C@H]4O)C(C)(C)[C@@H]3CC[C@]12C [PCM-0216466] | 6.2 | –
44 | O=C(CCc1ccc(O)cc1)c1c(O)cc(O)cc1O [PCM-0065552] | 15.2 | –
45 | Cc1cc(Nc2cc(CN3CCOCC3)c3nc(C)c(Cc4ccc(Cl)cc4F)n3n2)n[nH]1 [PCM-0095222] | 56.6 | –
46 | Nc1nonc1C(=Nc1ccc(F)c(Cl)c1)NO [PCM-0095795] | -3.1 | –
47 | CC1(C)CCC(CN2CCN(c3ccc(C(=O)NS(=O)(=O)c4ccc(NCC5CCOCC5)c([N+](=O)[O-])c4)c(Oc4cnc5[nH]ccc5c4)c3)CC2)=C(c2ccc(Cl)cc2)C1 [PCM-0095632] | -5.4 | –
48 | Cc1ccc(NC(=O)c2cccc(C(C)(C)C#N)c2)cc1Nc1ccc2ncn(C)c(=O)c2c1 [PCM-0095483] | 44.1 | –
49 | Cn1c(=O)cc(N2CCC[C@@H](N)C2)n(Cc2ccccc2C#N)c1=O [PCM-0095535] | -11 | –
50 | CO[C@@H](C(=O)N1Cc2[nH]nc(NC(=O)c3ccc(N4CCN(C)CC4)cc3)c2C1)c1ccccc1 [PCM-0094888] | 85.5 | –
51 | O=C(Nc1cccc(Cl)c1)c1ccccn1 [PCM-0095506] | 5.4 | –
52 | CC(=O)Nc1nc2c(Oc3cc(-c4ccc(C(F)(F)F)cc4)ncn3)cccc2s1 [PCM-0095587] | 10.8 | –
53 | COc1ccc([C@@H]2CC(=O)c3c(O)cc(O)cc3O2)cc1O [PCM-0091279] | -11.7 | –
54 | O=C1c2cccc3c2[C@H](CCC3)CN1[C@@H]1CN2CCC1CC2 [PCM-0095539] | 4.3 | –
55 | Nc1ccn([C@H]2CC[C@@H](CO)O2)c(=O)n1 [PCM-0065156] | -22.6 | –
56 | Nc1nc(=S)c2[nH]cnc2[nH]1 [PCM-0090185] | -1.6 | –
57 | C[C@H](CS)C(=O)N1CCC[C@H]1C(=O)O [PCM-0064658] | -2.3 | –

Row | SMILES | inhibition at 10 µM [1] [%] | inhibition at 10 µM (read-out: BTK inhibition (%)) [%]
58 | COc1ccc(CCC(=O)c2c(O)cc(O[C@@H]3O[C@H](CO)[C@@H](O)[C@H](O)[C@H]3O[C@@H]3O[C@@H](C)[C@H](O)[C@@H](O)[C@H]3O)cc2O)cc1O [PCM-0094869] | 9.3 | –
59 | C#C[C@]1(O)C=C[C@H]2[C@@H]3CCC4=CC(=O)CC[C@@H]4[C@H]3CC[C@@]21CC [PCM-0214616] | 3.1 | –
60 | O=C1C(=O)N(Cc2ccc(Cl)c(Cl)c2)c2ccccc21 [PCM-0095429] | 9.3 | –
61 | COc1ccc(-c2cc(=O)c3c(OC)c(OC)c(OC)c(OC)c3o2)cc1OC [PCM-0091108] | 2.3 | –
62 | COc1ncc(-c2cc(-c3ncc(CN4C[C@@H](C)O[C@@H](C)C4)o3)c3cn[nH]c3c2)cc1NS(C)(=O)=O [PCM-0213408] | 6.2 | –
63 | Cc1ccc(O)c([C@H](CCN(C(C)C)C(C)C)c2ccccc2)c1 [PCM-0095328] | 1.6 | –
64 | CC(O)(P(=O)(O)O)P(=O)(O)O [PCM-0086550] | -27.2 | –
65 | CC(C)=CCC[C@H](C(=O)O)[C@@H]1CC[C@]2(C)C3=C(CC[C@@]12C)[C@@]1(C)CCC(=O)C(C)(C)[C@@H]1CC3 [PCM-0216312] | – | -6.2
66 | O=C(O)CNC(=O)c1c(O)c2ccccc2n(Cc2ccccc2)c1=O [PCM-0095405] | -23.3 | –
67 | OCCn1cc(-c2cnc3nnn(Cc4ccc5ncccc5c4)c3n2)cn1 [PCM-0095071] | 0 | –
68 | CC(C)C1CCC(C(=O)N[C@H](Cc2ccccc2)C(=O)O)CC1 (stereo partly shown) [PCM-0095239] | -4.7 | –
69 | COc1cc(C)[nH]c(=O)c1CNC(=O)c1c(C)n([C@H](C)C2CCN(CC(F)(F)F)CC2)c2ccccc12 [PCM-0214592] | 21.6 | –
70 | CN(C)Cc1c[nH]c2ccccc12 [PCM-0091332] | -24.9 | –
71 | C=CC(=O)Nc1ccc2ncnc(Nc3ccc(OCc4cccc(F)c4)c(Cl)c3)c2c1 [PCM-0095229] | 110 | –
72 | COc1cc(/C=C/C(=O)N2CCN(CC(=O)N3CCCC3)CC2)cc(OC)c1OC [PCM-0095532] | 0 | –
73 | COc1ccc(-c2nc3ccc(C4=NNC(=O)CC4C)cc3[nH]2)cc1 (stereo not shown) [PCM-0095109] | -21.8 | –
74 | CC(C)S(=O)(=O)c1ccc2nccc(Nc3ccc4scnc4c3)c2c1 [PCM-0213432] | 26.2 | –
75 | CCCOc1ccc2nc(NC(=O)OC)[nH]c2c1 [PCM-0086075] | 10.2 | –
76 | C[C@](N)(Cc1ccc(O)c(O)c1)C(=O)O [PCM-0065509] | -18.7 | –
